In patent US10172824B2, “Crystal forms of scutellarin aglycone and preparation thereof” (YUNNAN INSTITUTE OF MATERIA MEDICA, priority 2014, dated 2019):
Where two headings read alike, the source gives them in different places.

Experiments:
[1] = Stability of crystal forms; conditions: room temperature below 50° C.
[2] = test system: ischemia/reperfusion rats; test: Evaluation of the degree of nerve function impairment (behavior score) in MCAO ischemia/reperfusion rats; assay type: in vivo, rat
Description: SD male rat was fasted one night, with free access to water. At the day of experiment, the rat was anesthetized by intraperitoneal injection of 35% chloral hydrate (350 mg/kg), and fixed on its back. The skin was incised along the neck median line to expose the carotid artery at the right side, and the internal and external carotid artery were separated. 3# nylon wire (a diameter of 0.285 mm) was inserted from the free end of the external carotid artery, introduced into the internal carotid artery from the distal end of the external carotid artery, and inserted at the artery of Willis's circle in brain, to effectively occlude the middle cerebral artery. The inserted nylon wire was 18˜20 mm away from carotid artery bifurcation. The free end of the external carotid artery and the intra cavitary nylon wire were ligated, to prevent bleeding. […] After middle cerebral artery occlusion (MCAO) for 2 h, the nylon wire was carefully drawn out from the internal carotid artery, and the internal carotid artery was subjected to reperfusion. […] The animals were grouped depending on the score of nerve function. Three groups were classified in the experiment, 15 animals for each group. […] In the sham-operated group and the model control group, an equal volume of 0.3% sodium carboxymethyl cellulose (CMC-Na) was administered. […] 2.3.1 Evaluation of the degree of nerve function impairment: the behavioral disorder of the animal was scored by double blind method at 1 h (before administration), 12 h, 24 h, 36 h, 48 h after reperfusion, according to the score standards in the following table, so as to evaluate the degree of nerve function impairment, wherein the total score is 16, the higher the score is, the more serious the degree of nerve function impairment is in the animal (Li Qian, Wang Qiujuan, Guo Qinglong, Protective effect of TQ0701-2 on cerebral ischemia reperfusion injury in rats [J]. CHINESE JOURNAL OF CLINICAL PHARMACOLOGY AND THERAPEUTICS, 2010, 15(1): 36-40.) Data was processed by the statistical analysis software SPSS11.5, and the results were expressed by x±s, and mathematical statistics were performed by using t-test for normal distribution data and using rank-sum test for skewed distribution.

[3] = test system: MCAO-induced ischemia-reperfusion rat; test: Cerebral infarction percentage 48 h after reperfusion (TTC staining) in MCAO ischemia/reperfusion rats; assay type: in vivo
Description: SD male rat was fasted one night, with free access to water. At the day of experiment, the rat was anesthetized by intraperitoneal injection of 35% chloral hydrate (350 mg/kg), and fixed on its back. The skin was incised along the neck median line to expose the carotid artery at the right side, and the internal and external carotid artery were separated. 3# nylon wire (a diameter of 0.285 mm) was inserted from the free end of the external carotid artery, introduced into the internal carotid artery from the distal end of the external carotid artery, and inserted at the artery of Willis's circle in brain, to effectively occlude the middle cerebral artery. The inserted nylon wire was 18˜20 mm away from carotid artery bifurcation. The free end of the external carotid artery and the intra cavitary nylon wire were ligated, to prevent bleeding. […] After middle cerebral artery occlusion (MCAO) for 2 h, the nylon wire was carefully drawn out from the internal carotid artery, and the internal carotid artery was subjected to reperfusion. […] The animals were grouped depending on the score of nerve function. Three groups were classified in the experiment, 15 animals for each group. […] In the sham-operated group and the model control group, an equal volume of 0.3% sodium carboxymethyl cellulose (CMC-Na) was administered. […] The rat was decapitated and the brain was taken 48 h after reperfusion, and was quickly frozen. The brain was cut along the coronal plane to obtain a 2 mm-thick slice. The brain slice was put in 1% TTC stain solution, and stained at 37° C. in dark by incubation for 30 min. After fixing with 10% formaldehyde solution for 1 week, the digits and images were stored in computer by digital camera imaging system. The infarction area and the whole brain area were determined by Medical Microscopic image Compute-aided Analysis System (MIAS) of Image Center of Beihang University, and the cerebral infarction percentage was calculated (the percentage of the infarction area in the whole brain area). […]

[4] = cited from earlier work; for substances detected in rat plasma: oral
[5] = compared with scutellarin; cited from earlier work
[6] = 360 mg scutellarin orally to a subject, 5 h (blood collected at 1, 3, 5, 8 h; determined only at 5 h); cited from earlier work

SMILES: O=c1cc(-c2ccc(O)cc2)oc2cc(O)c(O)c(O)c12 [crystal form A, 5,6,7-trihydroxy-2-(4-hydroxyphenyl)-4H-benzopyran-4-one]
- stability of crystal form [1]: the most stable crystal forms

SMILES: O=c1cc(-c2ccc(O)cc2)oc2cc(O)c(O)c(O)c12 [scutellarin aglycone, 5,6,7-trihydroxy-2-(4-hydroxyphenyl)-4H-benzopyran-4-one]
- improvement rate of nerve function disorder ([2]; crystal form A, 45.8 mg/kg intragastric, 48 h, compared to model control group, P<0.05): 34.97%
- Behavior score at different time after reperfusion, 1 h ([2]; ischemia/reperfusion rats, 45.8 mg/kg, 1 h after reperfusion (before administration), total score 16, x ± s, n = 15): 10.57 ± 2.22
- Behavior score at different time after reperfusion, 12 h ([2]; ischemia/reperfusion rats, 45.8 mg/kg, 12 h after reperfusion, total score 16, x ± s, n = 15): 7.96 ± 2.29
- Behavior score at different time after reperfusion, 24 h ([2]; ischemia/reperfusion rats, 45.8 mg/kg, 24 h after reperfusion, total score 16, x ± s, n = 15): 7.15 ± 2.56
- Behavior score at different time after reperfusion, 36 h ([2]; ischemia/reperfusion rats, 45.8 mg/kg, 36 h after reperfusion, total score 16, x ± s, n = 15): 6.23 ± 2.87
- Behavior score at different time after reperfusion, 48 h ([2]; ischemia/reperfusion rats, 45.8 mg/kg, 48 h after reperfusion, total score 16, x ± s, n = 15): 5.69 ± 2.67
- reducing rate of cerebral infarction area ([3]; crystal form A, 45.8 mg/kg intragastric, compared to model control group, P<0.05): 42.46%
- Cerebral infarction percentage (%) ([3]; ischemia/reperfusion rats, 45.8 mg/kg, TTC stain, x ± s, n = 15): 9.16 ± 0.09 %
- Reducing rate (%) ([3]; reduction of cerebral infarction percentage compared to the model control group, 45.8 mg/kg): 42.46%
- substances detected in rat plasma ([4]; 20 mg/kg scutellarin aglycone): only scutellarin was detected
- substances detected in rat plasma ([4]; 200 mg/kg scutellarin aglycone): both scutellarin aglycone and scutellarin could be detected
- metabolic stability ([4]; rats, intragastric, relative to scutellarin): metabolically stable relative to scutellarin
- oral absorption relative to scutellarin [5]: about 3 fold
- permeability in gastrointestinal tract [5]: higher permeability in gastrointestinal tract than scutellarin

SMILES: O=C(O)[C@H]1O[C@@H](Oc2cc3oc(-c4ccc(O)cc4)cc(=O)c3c(O)c2O)[C@H](O)[C@@H](O)[C@@H]1O [scutellarin]
- blood concentration of scutellarin [6]: 20 ng/mL
